PubChem BioAssay AID248 (DTP/NCI, 2004)
Several values for one entry are separate records, joined by “and”; a condition that tells them apart may be missing. Identical values can stand only once. Inconclusive results and toxic doses are left out. No stated cut-off is given here; in the data, active means T/C of 150% or more; inactive means T/C below 125%.

Tested on: L1210 leukemia ip in BDF1 mice, survival T/C
Assay: NCI In Vivo Anticancer Drug Screen. Data for tumor model L1210 Leukemia (intraperitoneal) in B6D2F1 (BDF1) mice
Settings: endpoint: mean survival time, higher = longer survival
How it was run: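 Transplantable tumor model; survival measured in treated vs vehicle control mice. Value = treated/control.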

[1] = dose: 100.0 mg/kg/injection, schedule: Q04DX003 (ip), vehicle: saline with Tween-80
[2] = dose: 200.0 mg/kg/injection, schedule: Q04DX003 (ip), vehicle: saline with Tween-80
[3] = dose: 100.0 mg/kg/injection, schedule: Q04DX003 (ip), vehicle: Klucel (hydroxypropylcellulose) (HPC)
[4] = dose: 200.0 mg/kg/injection, schedule: Q04DX003 (ip), vehicle: Klucel (hydroxypropylcellulose) (HPC)
[5] = dose: 400.0 mg/kg/injection, schedule: Q04DX003 (ip), vehicle: Klucel (hydroxypropylcellulose) (HPC)

Measured: T/C

COc1ccc(C(C)N=CC(C)(C)C)cc1 (centres undefined)
inactive: [1] 101 % of control | [2] 101 % of control

CCOC(=O)C1C(CCCCO)CC(=O)CC1(C)C(N)=O (centres undefined)
inactive: dose: 100.0 mg/kg/injection, schedule: Q01DX001 (ip), vehicle: saline 97 % of control | dose: 200.0 mg/kg/injection, schedule: Q01DX001 (ip), vehicle: saline 91 % of control | dose: 400.0 mg/kg/injection, schedule: Q01DX001 (ip), vehicle: saline 95 % of control

Nc1c(Cl)cc(Cl)c(-c2c(Cl)cc(Cl)c([N+](=O)[O-])c2Cl)c1Cl
inactive: dose: 100.0 mg/kg/injection, schedule: Q01DX001 (ip), vehicle: Klucel (hydroxypropylcellulose) (HPC) 106 % of control | dose: 200.0 mg/kg/injection, schedule: Q01DX001 (ip), vehicle: Klucel (hydroxypropylcellulose) (HPC) 101 % of control | dose: 400.0 mg/kg/injection, schedule: Q01DX001 (ip), vehicle: Klucel (hydroxypropylcellulose) (HPC) 95 % of control

COc1ncnc2c(C3OC(CO)C(O)C3O)[nH]nc12 (centres undefined)
inactive: dose: 100.0 mg/kg/injection, schedule: Q01DX005 (ip), vehicle: saline 103 % of control | dose: 200.0 mg/kg/injection, schedule: Q01DX005 (ip), vehicle: saline 97 % of control

CC1(c2ccc(F)cc2)OC(=O)c2c1ccc1ccccc21 (centres undefined)
inactive: dose: 100.0 mg/kg/injection, schedule: Q04DX002 (ip), vehicle: Klucel (hydroxypropylcellulose) (HPC) 101 % of control | dose: 200.0 mg/kg/injection, schedule: Q04DX002 (ip), vehicle: Klucel (hydroxypropylcellulose) (HPC) 94 % of control | dose: 400.0 mg/kg/injection, schedule: Q04DX002 (ip), vehicle: Klucel (hydroxypropylcellulose) (HPC) 101 % of control

NC(=O)c1ccc(NC(=O)/C=C/C(=O)Nc2ccc(C(N)=O)cn2)nc1
inactive: dose: 1.0 mg/kg/injection, schedule: Q01DX001 (ip), vehicle: saline 100 % of control | dose: 1.0 mg/kg/injection, schedule: Q01DX Z (ip), vehicle: saline 101 % of control and 105 % of control and 113 % of control | dose: 2.0 mg/kg/injection, schedule: Q01DX001 (ip), vehicle: saline 100 % of control | dose: 2.0 mg/kg/injection, schedule: Q01DX Z (ip), vehicle: saline 87 % of control | dose: 4.0 mg/kg/injection, schedule: Q01DX001 (ip), vehicle: saline 100 % of control | dose: 4.0 mg/kg/injection, schedule: Q01DX Z (ip), vehicle: saline 99 % of control | dose: 5.0 mg/kg/injection, schedule: Q01DX001 (ip), vehicle: saline 107 % of control | dose: 5.0 mg/kg/injection, schedule: Q04DX003 (ip), vehicle: saline 107 % of control | dose: 8.0 mg/kg/injection, schedule: Q01DX001 (ip), vehicle: saline 102 % of control | dose: 8.0 mg/kg/injection, schedule: Q01DX Z (ip), vehicle: saline 107 % of control and 91 % of control | dose: 10.0 mg/kg/injection, schedule: Q01DX001 (ip), vehicle: saline 98 % of control | dose: 11.25 mg/kg/injection, schedule: Q01DX009 (ip), vehicle: saline 93 % of control | dose: 13.0 mg/kg/injection, schedule: Q04DX003 (ip), vehicle: acetone 104 % of control | dose: 13.0 mg/kg/injection, schedule: Q04DX003 (ip), vehicle: saline 109 % of control | dose: 20.0 mg/kg/injection, schedule: Q01DX001 (ip), vehicle: saline 104 % of control | dose: 20.0 mg/kg/injection, schedule: Q04DX003 (ip), vehicle: acetone 109 % of control | dose: 20.0 mg/kg/injection, schedule: Q04DX003 (ip), vehicle: saline 109 % of control | dose: 30.0 mg/kg/injection, schedule: Q04DX003 (ip), vehicle: acetone 98 % of control | dose: 30.0 mg/kg/injection, schedule: Q04DX003 (ip), vehicle: saline 109 % of control | dose: 45.0 mg/kg/injection, schedule: Q04DX003 (ip), vehicle: saline 88 % of control

CCOC(=O)CCC(NC(=O)c1ccc(NC)c([N+](=O)[O-])c1)C(=O)OCC (centres undefined)
inactive: [3] 98 % of control | [4] 100 % of control | [5] 96 % of control

CC(=O)Nc1ccc(S(=O)(=O)N(CCO)c2ccccc2)cc1
inactive: [3] 97 % of control | [4] 90 % of control | [5] 90 % of control

CCC/C=C/CCCCCC
inactive: dose: 50.0 mg/kg/injection, schedule: Q01DX009 (ip), vehicle: saline with Tween-80 93 % of control | dose: 100.0 mg/kg/injection, schedule: Q01DX009 (ip), vehicle: saline with Tween-80 93 % of control | dose: 200.0 mg/kg/injection, schedule: Q01DX009 (ip), vehicle: saline with Tween-80 104 % of control

O=CNc1ccccc1[N+](=O)[O-]
inactive: [1] 94 % of control | [2] 94 % of control
